Assay results taken from US10669258B2, “3-sulfonyl-5-aminopyridine-2,4-diol APJ agonists” (BRISTOL-MYERS SQUIBB COMPANY, priority 2016, dated 2020).

Target: T1, human APJ receptor (Homo sapiens, UniProt P35414)
T1 construct: expressed in transfected cells; host or cells: HEK293
T1 sequence (P35414 1-380): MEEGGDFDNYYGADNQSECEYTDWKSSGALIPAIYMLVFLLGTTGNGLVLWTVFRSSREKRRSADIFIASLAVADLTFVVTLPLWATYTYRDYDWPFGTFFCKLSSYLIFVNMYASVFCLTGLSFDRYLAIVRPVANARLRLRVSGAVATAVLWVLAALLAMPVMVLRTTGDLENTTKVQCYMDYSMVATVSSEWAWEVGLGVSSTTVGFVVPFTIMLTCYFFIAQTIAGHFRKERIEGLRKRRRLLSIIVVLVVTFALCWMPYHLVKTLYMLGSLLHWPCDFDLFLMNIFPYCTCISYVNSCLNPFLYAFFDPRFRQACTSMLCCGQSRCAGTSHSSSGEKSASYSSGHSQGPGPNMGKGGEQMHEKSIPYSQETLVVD
Experiment: Intracellular cAMP accumulation assay (APJ hcAMP, HTRF)
Type: cell-based
Conditions: HEK293 cells stably expressing human APJ receptor; inhibition of forskolin-mediated cAMP production; Table 1; read-out: hAPJ cAMP EC50 Potency range
Summary of the method: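 Inhibition of forskolin (2 μM)-driven cAMP, with […], measured by HTRF after 30 min room-temperature compound exposure of stably transfected HEK293 cells. cAMP read from a standard curve; variable-slope fit gives EC50, and maximal inhibition is normalised to (Pyr1)apelin-13 as 100%.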

EC50 [nM]	SMILES
0.01 to 10	CCCCc1nc(O)c(S(=O)(=O)c2ccc(-c3ccccc3C(=O)NC)cc2)c(O)c1N1CCCOc2ccccc21 [Example 146, 4′-((6-butyl-5-(3,4-dihydrobenzo[b][1,4]oxazepin-5(2H)-yl)-2,4-dihydroxypyridin-3-yl)sulfonyl)-N-methyl-[1,1′-biphenyl]-2-carboxamide]
0.01 to 10	CCN(c1ccccc1)c1c(CC2CC2)nc(O)c(S(=O)(=O)c2ccc(-c3ccccc3C(N)=O)cc2)c1O [Example 147, 4′-((6-(cyclopropylmethyl)-5-(ethyl(phenyl)amino)-2,4-dihydroxypyridin-3-yl)sulfonyl)-[1,1′-biphenyl]-2-carboxamide]
0.01 to 10	CCN(c1ccccc1)c1c(-c2ccn(C)n2)nc(O)c(S(=O)(=O)c2ccc(-c3ccccc3C(N)=O)cc2)c1O [Example 148, 4′-((5-(ethyl(phenyl)amino)-2,4-dihydroxy-6-(1-methyl-1H-pyrazol-3-yl)pyridin-3-yl)sulfonyl)-[1,1′-biphenyl]-2-carboxamide]
0.01 to 10	CCN(c1ccccc1)c1c(-c2cnn(C)c2)nc(O)c(S(=O)(=O)c2ccc(-c3ccnc(F)c3C)cc2)c1O [Example 149, 5-(ethyl(phenyl)amino)-3-((4-(2-fluoro-3-methylpyridin-4-yl)phenyl)sulfonyl)-6-(1-methyl-1H-pyrazol-4-yl)pyridine-2,4-diol]
0.01 to 10	CCN(c1ccccc1)c1c(-c2cnn(C)c2)nc(O)c(S(=O)(=O)c2ccc(-c3cccnc3C)cc2)c1O [Example 150, 5-(ethyl(phenyl)amino)-6-(1-methyl-1H-pyrazol-4-yl)-3-((4-(2-methylpyridin-3-yl)phenyl)sulfonyl)pyri-dine-2,4-diol]
0.01 to 10	CCN(c1ccccc1)c1c(-c2cnn(C)c2)nc(O)c(S(=O)(=O)c2ccc(-c3ccccc3C(=O)NC)cc2)c1O [Example 151, 4′-((5-(ethyl(phenyl)amino)-2,4-dihydroxy-6-(1-methyl-1H-pyrazol-4-yl)pyridin-3-yl)sulfonyl)-N-methyl-[1,1′-biphenyl]-2-carboxamide]
0.01 to 10	CCN(c1ccccc1)c1c(-c2cnn(C)c2)nc(O)c(S(=O)(=O)c2ccc(-c3ccc(F)nc3C)cc2)c1O [Example 152, 5-(ethyl(phenyl)amino)-3-((4-(6-fluoro-2-methylpyridin-3-yl)phenyl)sulfonyl)-6-(1-methyl-1H-pyrazol-4-yl)pyridine-2,4-diol]
0.01 to 10	CCN(c1ccccc1)c1c(-c2cnn(C)c2)nc(O)c(S(=O)(=O)c2ccc(-c3ccccc3C(=O)NC3CC3)cc2)c1O [Example 153, N-cyclopropyl-4′-((5-(ethyl(phenyl)amino)-2,4-dihydroxy-6-(1-methyl-1H-pyrazol-4-yl)pyridin-3-yl)sulfonyl)-[1,1′-biphenyl]-2-carboxamide]
0.01 to 10	CCN(c1ccccc1)c1c(-c2cnn(C)c2)nc(O)c(S(=O)(=O)c2ccc(-c3ccccc3C(=O)N(C)C)cc2)c1O [Example 154, 4′-((5-(ethyl(phenyl)amino)-2,4-dihydroxy-6-(1-methyl-1H-pyrazol-4-yl)pyridin-3-yl)sulfonyl)-N,N-dimethyl-[1,1′-biphenyl]-2-carboxamide]
0.01 to 10	CCN(c1ccccc1)c1c(-c2cnn(C)c2)nc(O)c(S(=O)(=O)c2ccc(-c3ccc(F)cc3C(N)=O)cc2)c1O [Example 155, 4′-((5-(ethyl(phenyl)amino)-2,4-dihydroxy-6-(1-methyl-1H-pyrazol-4-yl)pyridin-3-yl)sulfonyl)-4-fluoro-[1,1′-biphenyl]-2-carboxamide]
0.01 to 10	CCN(c1ccccc1)c1c(-c2cnn(C)c2)nc(O)c(S(=O)(=O)c2ccc(-c3ccncc3C)cc2)c1O [Example 156, 5-(ethyl(phenyl)amino)-6-(1-methyl-1H-pyraozl-4-yl)-3-((4-(3-methylpyridin-4-yl)phenyl)sulfonyl)pyri-dine-2,4-diol]
0.01 to 10	Cc1nc(F)ccc1-c1ccc(S(=O)(=O)c2c(O)nc(-c3ccn(C)n3)c(N(c3ccccc3)C(C)C)c2O)cc1 [Example 157, 3-((4-(6-fluoro-2-methylpyridin-3-yl)phenyl)sulfonyl)-5-(isopropyl(phen-yl)amino)-6-(1-methyl-1H-pyrazol-3-yl)pyridine-2,4-diol]
0.01 to 10	CNC(=O)c1ccccc1-c1ccc(S(=O)(=O)c2c(O)nc(-c3ccn(C)n3)c(N(c3ccccc3)C(C)C)c2O)cc1 [Example 158, 4′-((2,4-dihydroxy-5-(isopropyl(phen-yl)amino)-6-(1-methyl-1H-pyrazol-3-yl)pyridin-3-yl)sulfonyl)-N-methyl-[1,1′-biphenyl]-2-carboxamide]
0.01 to 10	CC(C)N(c1ccccc1)c1c(-c2ccn(C)n2)nc(O)c(S(=O)(=O)c2ccc(-c3ccccc3C(=O)N(C)C)cc2)c1O [Example 159, 4′-((2,4-dihydroxy-5-(isopropyl(phen-yl)amino)-6-(1-methyl-1H-pyrazol-3-yl)pyridin-3-yl)sulfonyl)-N,N-dimethyl-[1,1′-biphenyl]-2-carboxamide]
10 to 100	Cc1c(-c2ccc(S(=O)(=O)c3c(O)nc(-c4ccn(C)n4)c(N4CC(C)(C)c5ccccc54)c3O)cc2)ccnc1F [Example 160, 5-(3,3-dimethylindolin-1-yl)-3-((4-(2-fluoro-3-methylpyridin-4-yl)phenyl)sulfonyl)-6-(1-methyl-1H-pyrazol-3-yl)pyridine-2,4-diol]
0.01 to 10	CC(C)N(c1ccccc1)c1c(-c2ccn(C)n2)nc(O)c(S(=O)(=O)c2ccc(-c3ccc(F)cc3C(N)=O)cc2)c1O [Example 161, 4′-((2,4-dihydroxy-5-(isopropyl(phenyl)amino)-6-(1-methyl-1H-pyrazol-3-yl)pyridin-3-yl)sulfonyl)-4-fluoro-[1,1′-biphenyl]-2-carboxamide]
0.01 to 10	CC(C)N(c1ccccc1)c1c(-c2ccn(C)n2)nc(O)c(S(=O)(=O)c2ccc(-c3ccccc3C(=O)NC3CC3)cc2)c1O [Example 162, N-cyclopropyl-4′-((2,4-dihydroxy-5-(isopropyl(phen-yl)amino)-6-(1-methyl-1H-pyrazol-3-yl)pyridin-3-y)sulfonyl)-[1,1′-biphenyl]-2-carboxamide]
0.01 to 10	CNC(=O)c1cccc(-c2ccc(S(=O)(=O)c3c(O)nc(-c4ccn(C)n4)c(N(c4ccccc4)C(C)C)c3O)cc2)c1 [Example 163, 4′-((2,4-dihydroxy-5-(isopropyl(phen-yl)amino)-6-(1-methyl-1H-pyrazol-3-yl)pyridin-3-yl)sulfonyl)-N-methyl-[1,1′-biphenyl]-3-carboxamide]
0.01 to 10	Cc1c(-c2ccc(S(=O)(=O)c3c(O)nc(-c4ccn(C)n4)c(N(c4ccccc4)C(C)C)c3O)cc2)ccnc1F [Example 164, 3-((4-(2-fluoro-3-methylpyridin-4-yl)phenyl)sulfonyl)-5-(isopropyl(phen-yl)amino)-6-(1-methyl-1H-pyrazol-3-yl)pyridine-2,4-diol]
0.01 to 10	Cc1ncccc1-c1ccc(S(=O)(=O)c2c(O)nc(-c3ccn(C)n3)c(N(c3ccccc3)C(C)C)c2O)cc1 [Example 165, 5-(iso-propyl(phenyl)amino)-6-(1-methyl-1H-pyrazol-3-yl)-3-((4-(2-methylpyridin-3-yl)phenyl)sulfonyl)pyri-dine-2,4-diol]
0.01 to 10	CC(C)N(c1ccccc1)c1c(-c2ccn(C)n2)nc(O)c(S(=O)(=O)c2ccc(-c3ccccc3C(N)=O)cc2)c1O [Example 166, 4′-((2,4-dihydroxy-5-(isopropyl(phen-yl)amino)-6-(1-methyl-1H-pyrazol-3-yl)pyridin-3-yl)sulfonyl)-[1,1′-biphenyl]-2-carboxamide]
0.01 to 10	CCCCc1nc(O)c(S(=O)(=O)c2ccc(-c3ccccc3C(N)=O)cc2)c(O)c1N1CCCOc2ccccc21 [Example 168, 4′-((6-butyl-5-(3,4-dihydrobenzo[b][1,4]ox-azepin-5(2H)-yl)-2,4-dihydroxypyridin-3-yl)sulfonyl)-[1,1′-biphenyl]-2-carboxamide]
10 to 100	CCCCc1nc(O)c(S(=O)(=O)c2ccc(-c3ccncc3C)cc2)c(O)c1N1CCCCc2ccccc21 [Example 169, 6-butyl-3-((4-(3-methylpyridin-4-yl)phenyl)sulfonyl)-5-(2,3,4,5-tetrahydro-1H-benzo[b]azepin-1-yl)pyridine-2,4-diol]
0.01 to 10	CCCCc1nc(O)c(S(=O)(=O)c2ccc(-c3ccncc3C)cc2)c(O)c1N(CC)c1cccc(C#N)c1 [Example 170, 3-((2-butyl-4,6-dihydroxy-5-((4-(3-methylpyridin-4-yl)phenyl)sulfonyl)pyri-din-3-yl)(ethyl)amino)benzonitrile]
0.01 to 10	CCCCc1nc(O)c(S(=O)(=O)c2ccc(-c3ccccc3C(=O)N(C)C)cc2)c(O)c1N(C)c1ccccc1F [Example 171, 4′-((6-butyl-5-((2-fluorophenyl)(methyl)a-mino)-2,4-dihydroxypyridin-3-yl)sulfonyl)-N,N-dimethyl-[1,1′-biphenyl]-2-carboxamide]
0.01 to 10	CCCCc1nc(O)c(S(=O)(=O)c2ccc(-c3ccnc(F)c3C)cc2)c(O)c1N(CC)c1cccc(C#N)c1 [Example 172, 3-((2-butyl-5-((4-(2-fluoro-3-methylpyridin-4-yl)phenyl)sulfonyl)-4,6-dihydroxypyridin-3-yl)(ethyl)amino)benzonitrile]
